“Also recorded” adds a separate entry of the source.
Columns and labels:
Type in all cases: in vivo
[1] = tested on: cotton aphid (CA) Aphis gossypii; test: Test 1: cotton aphid counts on plants grown from soaked seeds
Description: (§1) Seeds were soaked beginning on T=0 days in solutions of either
(§2) Compound A, imidacloprid, or plain water containing 0.125% (v:v) Tween 20 (check treatment). Compounds were formulated as technical material in water containing 0.125% Tween 20. […] Solution concentrations were 50, 5, 0.5, 0.05 and 0.005 ppm. No evaporation was possible and a significant excess of solution was present to ensure abundant availability of either Compound A or imidacloprid from each solution. On average 20 ml of solution was used to soak groups of seed needed for the seed soaking phase of this test. Seeds were removed from these solutions on T=2 days and planted. Seeds exposed to each unique treatment were germinated as a groups in dedicated shallow plastic cups filled with white sand and containing plain water. Planting of these seeds occurred on T=2 days and the seeds were grown in these shallow cups until T=10 days. Initially 70 ml of water was added to each shallow cup at planting and additional water was added to the cups as needed to keep the sand moist. On T=10 days germinating seedlings were transplanted from the shallow germination cups to individual containers (plastic cups−6 reps per treatment) filled with white sand. Thirty ml of water was used to water the plants following transplanting. After the initial treatment water was added to cups as needed to maintain moisture for plant development. On T=14 days each plant was infested with cotton aphid (CA) Aphis gossypii by transferring a small piece of infested foliage to each test plant. The number of aphids transferred to each plant was uniform based on visual estimation. Plants were rated on T=17 days and T=18 days by counting the number of CA and taking the weight of the each plant. The plant part weighed was the aerial portion of the plant cut off at the surface of the sand. Data were analyzed using analysis of variance with an LSD means separation test (Minitab).
Raw data were not homogeneous and so replicate aphid counts were transformed using a square root count+0.5 transformation.

[2] = tested on: plant grown from soaked seeds; test: Test 1: plant weight (aerial portion) after seed soak
Description: as §1, §2
Treatment number 4 experienced some negative effects associated with excess watering during the phase when these plants were being germinated. […] Only four replicate plants were able to be planted to individual growing cups. […] Prior to conducting an analysis of individual treatment effects (factorial analysis of variance, LSD means separation test P=0.05, Minitab) on weight Treatment 4 (Compound A 0.05 ppm) was removed from the analysis because it was judged to be an outlier based on poor growth as described above. The paired imidacloprid rate (0.05 ppm, No. 9) was also removed to keep the data balanced.

[3] = tested on: Corn (Zea mays 'M2T783') seeds; test: Test 2: fresh plant weight of corn after seed soak
Description: Technical samples of Compound A and imidacloprid were dissolved in water containing 0.125% Tween 20 (V:V). […] The treatment concentrations for Compound A and imidacloprid were 50, 12.5, 3.125, 0.78 and 0.19 ppm. Solutions were prepared in excess and 40 ml was added to 50 ml centrifuge tubes. Corn (Zea mays ‘M2T783’) seeds were inspected for uniform size and undamaged condition and were placed into each centrifuge tube containing specific compound by rate solutions. A treatment of only 0.125% aqueous Tween 20 was used to soak corn seeds and served as the untreated check. Tubes containing seeds and compound solutions were held at room temperature and after […] the seeds were removed from each solution, rinsed and planted into sand in 7.5 cm^2 pots. Tissue paper was placed into the bottom of each pot to keep sand from leaching from the pot. A total of 8 reps of each compound by rate combination were planted for both corn. Eight replicate pots of compound by rate combination were arranged in a completely randomized design on greenhouse carts. This arrangement of treated seeds in pots was placed into the greenhouse and watered over the top as needed. Each cart was equipped with a plastic rack that served to raise the pots up off the cart surface and away from any standing water. The carts were placed in the center of the greenhouse and were rotated 180 degrees daily. After 13 days the carts were moved to the laboratory and the plants were cut off at the soil surface and weighed. Fresh plant weight data were analyzed for homogeneity of variance using Levene's test and further evaluated using one way analysis of variance of individual treatment combinations (compound by rate) and pooled by compound across rates. Means were separated using Tukey's mean separation test with a family-wise error rate of 0.05. All analyses were conducted using Minitab
Corn data were homogeneous based on Levene's test for homgeneity of variance (p=0.116 and p=0.69 respectively). AOV of corn data did indicate a difference (F=3.22, P=0.045, df=2) for pooled compound effects but not for individual treatment effects.

CS(=O)(=NC#N)C(Cl)c1ccc(C(F)(F)F)nc1 (stereo not shown) [Compound A]
Effect on number of aphids vs check ([1]; Test 1, seed soak, compound main effect): significantly more aphids in the check treatment; also recorded: reduced the number of aphids on plants
Aphids (#/plant) Rep 1 ([1]; seed soak 0.005 ppm): 72 #/plant
Aphids (#/plant) Rep 2 ([1]; seed soak 0.005 ppm): 110 #/plant
Aphids (#/plant) Rep 3 ([1]; seed soak 0.005 ppm): 35 #/plant
Aphids (#/plant) Rep 4 ([1]; seed soak 0.005 ppm): 70 #/plant
Aphids (#/plant) Rep 5 ([1]; seed soak 0.005 ppm): 55 #/plant
Aphids (#/plant) Rep 6 ([1]; seed soak 0.005 ppm): 15 #/plant
Aphids (#/plant) Rep 1 ([1]; seed soak 0.05 ppm): 70 #/plant
Aphids (#/plant) Rep 2 ([1]; seed soak 0.05 ppm): 80 #/plant
Aphids (#/plant) Rep 3 ([1]; seed soak 0.05 ppm): 60 #/plant
Aphids (#/plant) Rep 4 ([1]; seed soak 0.05 ppm): 35 #/plant
Aphids (#/plant) Rep 1 ([1]; seed soak 0.5 ppm): 55 #/plant
Aphids (#/plant) Rep 2 ([1]; seed soak 0.5 ppm): 75 #/plant
Aphids (#/plant) Rep 3 ([1]; seed soak 0.5 ppm): 65 #/plant
Aphids (#/plant) Rep 4 ([1]; seed soak 0.5 ppm): 40 #/plant
Aphids (#/plant) Rep 5 ([1]; seed soak 0.5 ppm): 45 #/plant
Aphids (#/plant) Rep 6 ([1]; seed soak 0.5 ppm): 30 #/plant
Aphids (#/plant) Rep 1 ([1]; seed soak 5 ppm): 23 #/plant
Aphids (#/plant) Rep 2 ([1]; seed soak 5 ppm): 25 #/plant
Aphids (#/plant) Rep 3 ([1]; seed soak 5 ppm): 33 #/plant
Aphids (#/plant) Rep 4 ([1]; seed soak 5 ppm): 65 #/plant
Aphids (#/plant) Rep 5 ([1]; seed soak 5 ppm): 25 #/plant
Aphids (#/plant) Rep 6 ([1]; seed soak 5 ppm): 32 #/plant
Aphids (#/plant) Rep 1 ([1]; seed soak 50 ppm): 4 #/plant
Aphids (#/plant) Rep 2 ([1]; seed soak 50 ppm): 2 #/plant
Aphids (#/plant) Rep 3 ([1]; seed soak 50 ppm): 2 #/plant
Aphids (#/plant) Rep 4 ([1]; seed soak 50 ppm): 12 #/plant
Aphids (#/plant) Rep 5 ([1]; seed soak 50 ppm): 18 #/plant
Aphids (#/plant) Rep 6 ([1]; seed soak 50 ppm): 2 #/plant
Effect on plant weight vs check ([2]; Test 1, seed soak): significant increase in plant weight
Plant Weight (g) Rep 1 ([2]; seed soak 0.005 ppm): 2.36 g
Plant Weight (g) Rep 2 ([2]; seed soak 0.005 ppm): 1.76 g
Plant Weight (g) Rep 3 ([2]; seed soak 0.005 ppm): 2.09 g
Plant Weight (g) Rep 4 ([2]; seed soak 0.005 ppm): 2.22 g
Plant Weight (g) Rep 5 ([2]; seed soak 0.005 ppm): 1.92 g
Plant Weight (g) Rep 6 ([2]; seed soak 0.005 ppm): 1.93 g
Plant Weight (g) Rep 1 ([2]; seed soak 0.05 ppm): 0.73 g
Plant Weight (g) Rep 2 ([2]; seed soak 0.05 ppm): 1.35 g
Plant Weight (g) Rep 3 ([2]; seed soak 0.05 ppm): 1.2 g
Plant Weight (g) Rep 4 ([2]; seed soak 0.05 ppm): 1.1 g
Plant Weight (g) Rep 1 ([2]; seed soak 0.5 ppm): 1.84 g
Plant Weight (g) Rep 2 ([2]; seed soak 0.5 ppm): 1.88 g
Plant Weight (g) Rep 3 ([2]; seed soak 0.5 ppm): 2.04 g
Plant Weight (g) Rep 4 ([2]; seed soak 0.5 ppm): 2.13 g
Plant Weight (g) Rep 5 ([2]; seed soak 0.5 ppm): 1.96 g
Plant Weight (g) Rep 6 ([2]; seed soak 0.5 ppm): 1.8 g
Plant Weight (g) Rep 1 ([2]; seed soak 5 ppm): 2.23 g
Plant Weight (g) Rep 2 ([2]; seed soak 5 ppm): 2.1 g
Plant Weight (g) Rep 3 ([2]; seed soak 5 ppm): 1.79 g
Plant Weight (g) Rep 4 ([2]; seed soak 5 ppm): 2.53 g
Plant Weight (g) Rep 5 ([2]; seed soak 5 ppm): 1.87 g
Plant Weight (g) Rep 6 ([2]; seed soak 5 ppm): 1.9 g
Plant Weight (g) Rep 1 ([2]; seed soak 50 ppm): 2.29 g
Plant Weight (g) Rep 2 ([2]; seed soak 50 ppm): 2.22 g
Plant Weight (g) Rep 3 ([2]; seed soak 50 ppm): 2.12 g
Plant Weight (g) Rep 4 ([2]; seed soak 50 ppm): 1.87 g
Plant Weight (g) Rep 5 ([2]; seed soak 50 ppm): 1.87 g
Plant Weight (g) Rep 6 ([2]; seed soak 50 ppm): 2.14 g
Plant Weight % increase ([3]; corn seedling weight vs untreated Tween 20 water check, pooled across rates): 38.9%
Plant Weight (g) Mean ([3]; corn, seed soak, pooled across rates 50-0.19 ppm, fresh weight after 13 days): 3.162 g
Tukey's pair-wise comparison of corn plant weight with untreated Tween 20 water check ([3]; pooled compound effects, family-wise error rate 0.05): significantly different; also recorded: significantly increased plant weight

From patent US20120135866A1, “INCREASING PLANT VIGOR” (DOW AGROSCIENCES LLC, priority 2007, published 2012)
